# Target: T1, human mineralocorticoid receptor protein (MR) (Homo sapiens, UniProt P08235)
# T1 construct: made in house; host or cells: Spodoptera frugiperda Sf21 insect cells (baculovirus)
# T1 sequence (P08235 1-984): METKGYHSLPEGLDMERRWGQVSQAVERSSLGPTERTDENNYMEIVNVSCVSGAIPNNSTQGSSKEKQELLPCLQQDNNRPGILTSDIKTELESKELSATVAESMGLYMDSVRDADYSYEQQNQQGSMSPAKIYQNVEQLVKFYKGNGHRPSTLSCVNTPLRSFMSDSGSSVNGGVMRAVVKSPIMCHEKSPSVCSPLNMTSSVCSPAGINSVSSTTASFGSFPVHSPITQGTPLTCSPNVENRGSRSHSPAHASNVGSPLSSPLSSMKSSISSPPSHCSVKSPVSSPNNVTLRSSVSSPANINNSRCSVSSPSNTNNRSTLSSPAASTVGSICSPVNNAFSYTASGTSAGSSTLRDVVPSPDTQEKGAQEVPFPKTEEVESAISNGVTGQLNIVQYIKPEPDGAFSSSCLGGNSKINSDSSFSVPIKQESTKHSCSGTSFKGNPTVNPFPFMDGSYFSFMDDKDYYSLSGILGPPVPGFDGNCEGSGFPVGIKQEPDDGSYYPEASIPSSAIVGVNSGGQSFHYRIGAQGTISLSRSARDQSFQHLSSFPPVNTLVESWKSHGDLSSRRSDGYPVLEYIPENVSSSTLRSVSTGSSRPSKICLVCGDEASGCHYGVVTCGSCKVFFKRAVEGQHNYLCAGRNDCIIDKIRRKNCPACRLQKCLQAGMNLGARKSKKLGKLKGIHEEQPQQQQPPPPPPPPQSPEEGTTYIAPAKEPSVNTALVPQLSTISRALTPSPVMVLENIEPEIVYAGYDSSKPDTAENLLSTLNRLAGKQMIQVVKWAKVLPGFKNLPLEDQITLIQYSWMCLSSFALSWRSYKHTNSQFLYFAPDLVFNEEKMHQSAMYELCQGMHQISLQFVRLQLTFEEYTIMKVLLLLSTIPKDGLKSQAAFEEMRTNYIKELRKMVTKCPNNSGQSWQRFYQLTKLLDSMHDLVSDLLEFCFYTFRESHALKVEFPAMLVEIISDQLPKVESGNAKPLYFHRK
# Assay: Mineralocorticoid receptor binding assay ([3H]aldosterone competition, MR lysate)
# Settings: baculovirus-expressed MR lysate from Sf21 cells; 2-4 nM [3H]aldosterone; 16 hours at 4° C.; Cheng-Prusoff from IC50
# Description: A baculovirus expression plasmid comprising cDNA encoding the human mineralocorticoid receptor protein (MR) was prepared using standard techniques. See e.g. E. A. Allegretto et. al. 268 J. Biol. Chem., 26625 (1993); G. Srinivasan and B. Thompson, 4 Mol. Endo., 209 (1990); and D. R. O'Reilly et. al., in “Baculovirus Expression Vectors”, D. R. O'Reilly et. al., eds., W. H. Freeman, New York, N.Y., pp. 139-179 (1992). That expression plasmid was co-transfected together with wild type Autographa californica multiple nuclear polyhedrosis virus DNA into Spodoptera frugiperda-21 (Sf-21) cells to generate recombinant virus comprising MR cDNA. See e.g. O'Reilly, D. R., Miller, L. K., Luckow, V. A., Regulation of expression of a baculovirus ecdysteroid UDP glucosyltransferase gene. “Baculovirus Expression Vectors.” WH Freeman, NY, 139-179 (1992). That recombinant virus comprising MR cDNA was collected.
# A suspension culture of uninfected Sf21 cells was grown to a density of 1.2×10^6 cells/ml and then infected with the recombinant virus comprising MR cDNA at a multiplicity of infection of 2. Those infected Sf21 cells were incubated for 48 hours and then collected by centrifugation at 1000×g for 10 minutes at 4° C. The resulting cell pellets were resuspended in lysis buffer (50 mM Potassium Phosphate buffer, pH 7.0, 10 mM Monothioglycerol, 5 mM DTT, 20 mM Sodium Molybdate, 1 mM PMSF, 1 μg/mL aprotinin, and 10 μg/mL leupeptin) and incubated for 15 minutes on ice. Those resuspended cell pellets were homogenized using a Dounce homogenizer and a B pestle. A volume of 2 M KCl was added to the homogenized cell pellets to a final concentration of 0.4 M. The resulting MR lysates were centrifuged at 100,000×g for 60 min at 4° C. and stored for use in binding assays.
# Binding assay samples were prepared in separate mini-tubes in a 96-well format at 4° C. Each binding assay sample was prepared in a volume of 250 μl of MR-Assay Buffer (10% glycerol, 10 mM sodium phosphate, 10 mM potassium fluoride, 20 mM sodium molybdate, 0.25 mM CHAPS, 2 mM DTT, (adjusted to pH 7.35)) containing 5-10 μg of MR lysate; 2-4 nM of [^3H]aldosterone; unlabeled aldosterone; and a test compound. Each test compound was assayed at several different concentrations, ranging from 0 to 10^−5 M and each was tested in the presence and in the absence of several different concentrations of unlabeled aldosterone. Each concentration of each test compound was assayed in triplicate. The assay samples were incubated for 16 hours at 4° C.
# After incubation, 200 μl of 6.25% hydroxylapatite in assay buffer was added to each assay sample to precipitate the protein. The assay samples were then centrifuged and the supernatants were discarded. The resulting pellets were washed twice with assay buffer lacking DTT. Radioactivity in counts per minute (CPM) of each washed pellet was determined by liquid scintillation counter (MicroBeta™, Wallach).
# Specific binding for a particular sample was calculated using the equation: (Sample CPM)−(Average Non-specific CPM) Average Non-specific CPM was defined as the amount of radioactivity from samples comprising an excess (i.e. 1000 nM) of unlabeled aldosterone. IC50 values (the concentration of test compound required to decrease specific binding by 50%) were determined using the log-logit (Hill) method. Ki values were determined using the Cheng-Prusoff equation using a previously determined Kd value for aldosterone: Ki=IC50/(1+[L]/Kd) [L]=concentration of labeled aldosterone Kd=dissociation constant of labeled aldosterone Ki values for certain mineralocorticoid receptor binding compounds are shown in Table 1.
row,Compound,Ki [nM]
1,"O=C1Nc2ccc(-c3cccc(C(F)(F)F)c3)c(Cl)c2C(c2ccc(F)cc2)O1 (racemic) [Compound 118, (±)-5-Chloro-4-(4-fluorophenyl)-1,4-dihydro-6-[3-(trifluoromethyl)phenyl]-2H-3,1-benzoxazin-2-one]",150
2,"CC1(C)OC(=O)Nc2ccc(-c3cccc(C#N)c3)c(Cl)c21 [Compound 101, 5-Chloro-6-(3-cyanophenyl)-1,4-dihydro-4,4-dimethyl-2H-3,1-benzoxazin-2-one]",98
3,"CC(=O)c1cccc(-c2ccc3c(c2Cl)C(C)(C)OC(=O)N3)c1 [Compound 103, 6-(3-Acetylphenyl)-5-chloro-1,4-dihydro-4,4-dimethyl-2H-3,1-benzoxazin-2-one]",375

# The remaining lines, values ahead:
row,Ki [nM],Compound
1,45,"CC1OC(=S)Nc2ccc(-c3cccc(C(F)(F)F)c3)c(Cl)c21 (racemic) [Compound 111, (±)-5-Chloro-1,4-dihydro-4-methyl-6-[3-(trifluoromethyl)phenyl]-2H-3,1-benzoxazin-2-thione]"
2,440,"CC1(C)OC(=O)Nc2ccc(-c3cccc(C(F)(F)F)c3)c(Cl)c21 [Compound 102, 5-Chloro-1,4-dihydro-4,4-dimethyl-6-[3-(trifluoromethyl)phenyl]-2H-3,1-benzoxazin-2-one]"
3,52,"CC1(C)OC(=S)Nc2ccc(-c3cccc(C(F)(F)F)c3)c(Cl)c21 [Compound 104, 5-Chloro-1,4-dihydro-4,4-dimethyl-6-[3-(trifluoromethyl)phenyl]-2H-3,1-benzoxazin-2-thione]"

# From patent US7442696B2, “Mineralocorticoid receptor modulator compounds, processes for their preparation, and their uses” (Ligand Pharmaceuticals, Inc., priority 2004, dated 2008)
